These results are taken from paper PMC11472310, “Distinctive Immune Signatures Driven by Structural Alterations in Desmuramylpeptide NOD2 Agonists” (Journal of Medicinal Chemistry, 2024).

The subject of assay [1] is CD4+ T cells cocultured with BMDCs. Briefly: BMDC antigen presentation to ovalbumin-specific CD4+ T cells (OT II). Conditions: BMDCs pretreated 10 μM + ovalbumin 50 μg/mL 18 h, coculture 72 h; OVA-treated cells 63.8%. Type of assay: cell-based, C57BL/6 mouse. As to the method:
For this study, we narrowed down the selection of suitable desmuramylpeptides even further. In order to assess the adjuvant potential of selected desmuramylpeptides with regard to their effect on DC-mediated activation of CD4^+ and CD8^+ T cells, we conducted an ex vivo antigen-presentation assay utilizing C57BL/6 mouse bone marrow-derived DCs (BMDCs). Upon stimulation with desmuramylpeptides at 10 μM, in conjunction with ovalbumin soluble protein (50 μg/mL), BMDCs were cocultured with carboxyfluorescein succinimidyl ester (CFSE)-labeled naïve ovalbumin-specific CD4^+ or CD8^+ T cells, which were isolated from splenocytes of OT II and OT I transgenic mice, respectively. […] Additionally, we investigated how the priming of T cells elicited by the tested compounds impacted the cytokine profiles secreted in BMDC/T-cell cocultures.
CD4^+ and CD8^+ T cells were isolated from splenocytes of OT II and OT I transgenic mice using CD4^+ and CD8^+ T cell isolation kits (Miltenyi Biotec, Germany) following the manufacturer’s instructions. The purified T cells were labeled with CFSE (Invitrogen, Carlsbad, CA, USA) and subsequently washed. Next, 5 × 10^4 T cells were combined with 1 × 10^4 BMDCs/well (pretreated with desmuramylpeptides at 10 μM and 50 μg/mL ovalbumin [Invivogen, San Diego, CA, USA] for 18 h and then washed). Following a 72-h incubation period at 37 °C with 5% CO2, supernatants were harvested and stored at −80 °C for cytokine analysis. The cells were then stained with Fixable viability dye eFluor 780 (eBioscience, Thermo Fisher Scientific, MA, USA), anti-Thy1.2-PE-Cy7 antibodies (Biolegend, San Diego, CA, USA), anti-CD8-eFluor450 antibodies (eBioscience), anti-CD4-eFluor450 antibodies (eBioscience), and anti-CD25-APC antibodies (Biolegend) before analysis using a Beckman Coulter Cytoflex S flow cytometer (CA, USA) and FlowJo software (Tree Star, Inc., Ashland, OR, USA). Live Thy1.2+/CD4+ and Thy1.2+/CD8+ cells were assessed for CFSE dilution and CD25 expression. Each experiment was performed in duplicate and repeated in two independent biological replicates. Statistical significance was determined using paired t tests.

The target in another assay is T1, hNOD2 (Homo sapiens, UniProt Q9HC29).
T1 construct: host or cells: HEK-Blue NOD2 cells (HEK293)
Nature of the assay: HEK-Blue NOD2 cell line reporter assay (NF-κB-inducible SEAP). Type of assay: cell-based. The note with it: for EC50: HEK-Blue NOD2 cells, 18 h. The essentials: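 HEK293 cells cotransfected with hNOD2 and an NF-κB-inducible SEAP reporter, exposed to compounds dose-dependently for 18 h at 37 °C, 5% CO2. SEAP read by absorbance at 630 nm; EC50 values from dose-response, duplicate wells, at least two independent biological replicates.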
(Reporter assays use an easily measured gene product as a stand-in for the process of interest.)

Assay [2] has as its system human blood monocyte subsets. Nature of the assay: Monocyte conversion assay in PBMCs (CD14/CD16 flow cytometry). Type of assay: cell-based. Conditions: 10 μM, 18 h, NT 19.5%. From the text: Engagement of NOD2 has been reported to increase the levels of an anti-inflammatory monocyte subset, denoted as patrolling monocytes (CD14^–, CD16^+2), thus exerting a counterintuitive role in inflammatory processes, while concomitantly increasing the levels of total blood monocytes (released from bone marrow).[18] […] This process involves a transition from the inflammatory monocytes, typified by CD14^+CD16^–, through an intermediate subset of CD14^+CD16^+ monocytes. […] To recapitulate this phenomenon, we modified the reported procedure and employed PBMCs in lieu of isolated monocytes. Identification of human blood monocyte subsets was achieved through flow cytometry, utilizing the expression of CD14 and CD16 markers as distinguishing criteria. […] Similar to what has been reported (e.g., inactivity of murabutide),[18] also in our case not all NOD2 agonists were equally endowed with the ability to generate patrolling monocytes.
The monocyte conversion assay was conducted following previously established methods, with some adjustments.[18] Peripheral blood mononuclear cells were plated at a density of 3 × 10^6 cells/mL in 24-well plates containing 700 μL of growth medium. Cells were then treated with MDP and desmuramylpeptides (10 μM) or the corresponding vehicle (0.1% DMSO). Following an incubation period at 37 °C with 5% CO2, cells were transferred to 1.5 mL tube using phosphate-buffered saline (PBS) and scraper. The cells were blocked with human TruStain Fcx (BioLegend) and stained using antihuman CD16 antibodies/Alexa Fluor 488 (BioLegend); antihuman CD14 antibodies/PE-Cy7 (BioLegend); antihuman HLA-DR antibodies/APC-Fire750 (BioLegend) and blocked with TrueStain Monocyte Blocker. A viability dye Helix NP Blue (BioLegend) was added to the previous panel to discriminate live cells. PBMC were analyzed using an Attune NxT flow cytometer (Thermo Fisher Scientific, Waltham, MA, USA) and the FlowJo software (Tree Star, Inc., Ashland, OR, USA). Initially, lymphocytes (CD14^–, CD16^–) and NK (CD16^–, HLA-DR^–) were eliminated, after which classical, intermediate and nonclassical monocytes were specifically identified by selective gating strategy as follows: CD14^+ CD16^– (classical), CD14^+ CD16^+ (intermediate) and CD14^– CD16^+ (nonclassical). Each experiment was conducted in duplicate and repeated in three independent biological replicates.
(In flow cytometry, cells or beads pass a laser one at a time.)

Where [3] appears, read: NF-κB transcriptional activity (SEAP), read-out: EC50 (nM), NOD2 agonistic activity.

Read-outs that look alike come from different tables or passages of the source.

T1 sequence (Q9HC29 whole entry): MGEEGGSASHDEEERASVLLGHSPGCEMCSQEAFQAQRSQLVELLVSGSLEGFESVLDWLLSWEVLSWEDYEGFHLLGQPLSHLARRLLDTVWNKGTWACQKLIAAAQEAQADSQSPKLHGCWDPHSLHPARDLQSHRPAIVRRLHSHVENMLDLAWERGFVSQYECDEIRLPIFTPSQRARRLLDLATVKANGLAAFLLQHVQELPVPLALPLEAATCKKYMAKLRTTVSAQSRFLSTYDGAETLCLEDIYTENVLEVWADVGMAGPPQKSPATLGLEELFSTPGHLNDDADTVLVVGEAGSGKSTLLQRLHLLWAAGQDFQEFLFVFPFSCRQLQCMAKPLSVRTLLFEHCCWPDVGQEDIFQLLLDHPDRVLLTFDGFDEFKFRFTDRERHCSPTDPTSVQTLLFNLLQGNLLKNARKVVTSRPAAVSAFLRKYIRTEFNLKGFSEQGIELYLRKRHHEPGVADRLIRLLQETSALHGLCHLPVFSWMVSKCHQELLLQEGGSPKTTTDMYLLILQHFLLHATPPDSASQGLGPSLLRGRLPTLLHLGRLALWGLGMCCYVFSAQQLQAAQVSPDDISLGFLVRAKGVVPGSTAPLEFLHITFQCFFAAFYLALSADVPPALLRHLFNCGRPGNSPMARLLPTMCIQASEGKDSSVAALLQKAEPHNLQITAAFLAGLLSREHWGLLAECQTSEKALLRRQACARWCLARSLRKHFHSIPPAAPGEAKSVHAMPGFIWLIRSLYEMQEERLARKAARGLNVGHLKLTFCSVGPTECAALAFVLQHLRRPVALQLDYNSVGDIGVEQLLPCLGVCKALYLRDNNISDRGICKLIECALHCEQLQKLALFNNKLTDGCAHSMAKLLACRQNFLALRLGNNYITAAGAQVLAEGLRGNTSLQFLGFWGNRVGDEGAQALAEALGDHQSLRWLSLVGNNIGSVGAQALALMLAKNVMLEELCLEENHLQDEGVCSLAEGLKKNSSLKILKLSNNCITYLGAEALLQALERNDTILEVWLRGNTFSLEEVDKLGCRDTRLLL

For orientation: EC50 means the midpoint of the concentration-response curve. Consider `CCCC(=O)Oc1ccc(/C=C/C(=O)NCC(=O)N[C@H](C(=O)N[C@H](CCC(=O)OCC)C(=O)OCC)C(C)C)cc1OC` [Compound 3, Diethyl ((E)-3-(4-(Butyryloxy)-3-methoxyphenyl)acryloyl)glycyl-L-valyl-D-glutamate], for which the “fraction of activated and proliferating CD4+ T-cells (CD25+, CFSE low)” value (shortened to “fraction”) in assay [1] came to 77.9%. In addition, on hNOD2 (EC50 ratio versus unsubstituted counterpart 1), the “enhancement in potency compared to 1” value is roughly 17 fold. The EC50 on hNOD2 (setting [3]) worked out at 4.6 ± 1.6 nM. Besides, the “levels of nonclassical monocytes” value in assay [2] is 31.9%.
As to `CC/C=C\C/C=C\C/C=C\C/C=C\C/C=C\CCCC(=O)Oc1ccc(/C=C/C(=O)NCC(=O)N[C@H](C(=O)N[C@H](CCC(=O)OCC)C(=O)OCC)C(C)C)cc1OC` [Compound 23, Diethyl ((E)-3-(4-(((5Z,8Z,11Z,14Z,17Z)-Icosa-5,8,11,14,17-pentaenoyl)oxy)-3-methoxyphenyl)acryloyl)glycyl-L-valyl-D-glutamate], the “fraction” value in assay [1] was 79.7%. For the same compound, the EC50 on hNOD2 (setting [3]) was 105 ± 22.8 nM. For the same compound, the “levels of nonclassical monocytes” value in assay [2] was 31.0%.
For the compound `CCOC(=O)CC[C@@H](NC(=O)[C@@H](NC(=O)CNC(=O)/C=C/c1ccc(OC(=O)CO[C@H]2CC[C@@]3(C)C(=CC[C@H]4[C@@H]5CC[C@H]([C@H](C)CCCC(C)C)[C@@]5(C)CC[C@@H]43)C2)c(OC)c1)C(C)C)C(=O)OCC` [Compound 26, Diethyl ((E)-3-(4-(2-(((8S,9S,10R,13R,14S,17R)-10,13-Dimethyl-17-((R)-6-methylheptan-2-yl)-2,3,4,7,8,9,10,11,12,13,14,15,16,17-tetradecahydro-1H-cyclopenta[a]phenanthren-3-yl)oxy)acetoxy)-3-methoxyphenyl)acryloyl)glycyl-L-valyl-D-glutamate], the “fraction” value in assay [1] was found to be 62.7%. For the same compound, the EC50 at hNOD2 (setting [3]) was found to be 12200 nM; at hNOD2 (read-out: EC50, NOD2 agonistic activity (text)), 12200 nM. In addition, the “levels of nonclassical monocytes” value in assay [2] stood at 44.8%.
